17 compounds from ChEMBL document CHEMBL5291721, “A preclinical secondary pharmacology resource illuminates target-adverse drug reaction associations of marketed drugs” (Nat Commun, 2023) can be followed below.

Bounds are passed on as bounds.

One assay deals with D(1A) dopamine receptor (Homo sapiens, UniProt P21728). The class given is functional, cell-based.
In assay [1] the target is T1, Muscarinic acetylcholine receptor M2 (Homo sapiens, UniProt P08172).
T1 sequence (P08172 whole entry): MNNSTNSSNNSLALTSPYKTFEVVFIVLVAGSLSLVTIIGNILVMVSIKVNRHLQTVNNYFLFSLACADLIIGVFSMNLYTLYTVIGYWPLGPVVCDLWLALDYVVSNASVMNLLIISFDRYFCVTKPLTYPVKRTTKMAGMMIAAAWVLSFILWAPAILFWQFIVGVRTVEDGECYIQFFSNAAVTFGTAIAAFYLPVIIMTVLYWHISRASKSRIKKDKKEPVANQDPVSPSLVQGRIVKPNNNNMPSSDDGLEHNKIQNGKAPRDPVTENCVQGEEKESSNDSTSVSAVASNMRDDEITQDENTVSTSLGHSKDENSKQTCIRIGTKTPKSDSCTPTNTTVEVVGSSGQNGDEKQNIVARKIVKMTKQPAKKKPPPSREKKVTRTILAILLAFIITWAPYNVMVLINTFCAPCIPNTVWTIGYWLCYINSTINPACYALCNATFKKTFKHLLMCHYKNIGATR
The class given is functional, cell-based.

The target in assay [2] is T2, 5-hydroxytryptamine receptor 1A (Homo sapiens, UniProt P08908).
T2 sequence (P08908 whole entry): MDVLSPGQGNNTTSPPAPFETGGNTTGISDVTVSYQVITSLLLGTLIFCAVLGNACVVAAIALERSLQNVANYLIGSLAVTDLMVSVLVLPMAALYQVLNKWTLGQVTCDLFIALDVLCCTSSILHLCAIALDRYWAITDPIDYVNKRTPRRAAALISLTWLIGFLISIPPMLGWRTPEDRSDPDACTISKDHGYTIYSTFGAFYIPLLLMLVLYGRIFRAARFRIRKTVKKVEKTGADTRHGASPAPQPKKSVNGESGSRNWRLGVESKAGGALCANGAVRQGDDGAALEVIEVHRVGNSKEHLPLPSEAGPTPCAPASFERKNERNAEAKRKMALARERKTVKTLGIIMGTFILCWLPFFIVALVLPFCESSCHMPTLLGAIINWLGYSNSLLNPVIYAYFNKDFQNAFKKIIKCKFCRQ
The class given is functional, cell-based.

A further assay has as its target T3, Progesterone receptor (Homo sapiens, UniProt P06401).
T3 sequence (P06401 whole entry): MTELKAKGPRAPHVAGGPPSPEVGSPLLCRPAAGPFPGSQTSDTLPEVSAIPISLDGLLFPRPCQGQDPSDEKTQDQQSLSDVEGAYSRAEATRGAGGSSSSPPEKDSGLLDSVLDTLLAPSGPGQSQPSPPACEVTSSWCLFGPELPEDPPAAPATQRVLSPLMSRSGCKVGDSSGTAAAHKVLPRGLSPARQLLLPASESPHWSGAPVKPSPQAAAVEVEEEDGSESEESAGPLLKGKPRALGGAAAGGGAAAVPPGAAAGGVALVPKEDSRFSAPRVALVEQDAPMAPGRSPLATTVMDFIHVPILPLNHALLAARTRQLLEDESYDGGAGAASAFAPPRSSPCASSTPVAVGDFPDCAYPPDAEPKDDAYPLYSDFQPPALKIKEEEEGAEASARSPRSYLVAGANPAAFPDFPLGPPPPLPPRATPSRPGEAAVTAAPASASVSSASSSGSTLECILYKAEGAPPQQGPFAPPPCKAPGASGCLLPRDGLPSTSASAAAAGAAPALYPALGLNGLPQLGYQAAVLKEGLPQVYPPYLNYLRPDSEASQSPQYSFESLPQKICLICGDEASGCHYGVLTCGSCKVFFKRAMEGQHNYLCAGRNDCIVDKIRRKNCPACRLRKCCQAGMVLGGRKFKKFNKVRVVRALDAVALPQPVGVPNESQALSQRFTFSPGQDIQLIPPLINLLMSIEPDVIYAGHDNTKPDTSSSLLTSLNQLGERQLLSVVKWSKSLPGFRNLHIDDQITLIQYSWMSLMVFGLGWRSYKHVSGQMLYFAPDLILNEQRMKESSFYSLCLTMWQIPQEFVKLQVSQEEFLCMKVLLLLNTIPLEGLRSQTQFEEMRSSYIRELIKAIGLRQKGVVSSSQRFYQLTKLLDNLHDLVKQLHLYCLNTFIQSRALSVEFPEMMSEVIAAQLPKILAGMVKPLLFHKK
The class given is functional.

In assay [3] the target is 5-hydroxytryptamine receptor 2B (Homo sapiens, UniProt P41595). The class given is functional, cell-based.
The target in assay [4] is T4, 5-hydroxytryptamine receptor 3A (Homo sapiens, UniProt P46098).
T4 sequence (P46098 whole entry): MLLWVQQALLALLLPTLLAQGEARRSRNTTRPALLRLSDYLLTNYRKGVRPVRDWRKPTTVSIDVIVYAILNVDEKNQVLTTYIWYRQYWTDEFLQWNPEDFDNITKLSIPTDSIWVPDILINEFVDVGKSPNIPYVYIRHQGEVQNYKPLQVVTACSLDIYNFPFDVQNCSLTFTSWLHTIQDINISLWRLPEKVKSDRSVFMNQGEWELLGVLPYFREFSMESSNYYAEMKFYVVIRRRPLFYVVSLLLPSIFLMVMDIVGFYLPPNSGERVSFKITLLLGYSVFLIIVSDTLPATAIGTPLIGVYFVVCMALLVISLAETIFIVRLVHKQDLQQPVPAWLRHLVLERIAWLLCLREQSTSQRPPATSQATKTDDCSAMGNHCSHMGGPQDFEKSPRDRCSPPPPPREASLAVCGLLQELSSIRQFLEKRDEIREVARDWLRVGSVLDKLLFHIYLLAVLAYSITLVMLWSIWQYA
The class given is functional.

For assay [5], the target named is T5, Alpha-2C adrenergic receptor (Homo sapiens, UniProt P18825).
T5 sequence (P18825 whole entry): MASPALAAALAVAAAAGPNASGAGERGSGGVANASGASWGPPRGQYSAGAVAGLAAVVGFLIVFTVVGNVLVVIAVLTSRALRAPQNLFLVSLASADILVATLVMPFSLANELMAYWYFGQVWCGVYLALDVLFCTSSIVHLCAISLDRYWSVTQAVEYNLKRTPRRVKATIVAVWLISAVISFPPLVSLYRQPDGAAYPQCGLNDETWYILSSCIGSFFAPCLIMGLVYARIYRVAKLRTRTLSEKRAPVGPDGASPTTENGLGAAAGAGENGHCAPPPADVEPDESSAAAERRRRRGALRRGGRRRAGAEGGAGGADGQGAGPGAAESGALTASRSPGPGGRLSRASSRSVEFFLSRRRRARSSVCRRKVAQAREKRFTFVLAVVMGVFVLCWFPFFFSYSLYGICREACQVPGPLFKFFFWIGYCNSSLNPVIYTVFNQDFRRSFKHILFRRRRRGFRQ
The class given is functional.

For a further assay, the target named is Cannabinoid receptor 1 (Homo sapiens, UniProt P21554). The class given is functional, cell-based.
Further: assay procedure not described here.

Sequence of D(1A) dopamine receptor (P21728 whole entry): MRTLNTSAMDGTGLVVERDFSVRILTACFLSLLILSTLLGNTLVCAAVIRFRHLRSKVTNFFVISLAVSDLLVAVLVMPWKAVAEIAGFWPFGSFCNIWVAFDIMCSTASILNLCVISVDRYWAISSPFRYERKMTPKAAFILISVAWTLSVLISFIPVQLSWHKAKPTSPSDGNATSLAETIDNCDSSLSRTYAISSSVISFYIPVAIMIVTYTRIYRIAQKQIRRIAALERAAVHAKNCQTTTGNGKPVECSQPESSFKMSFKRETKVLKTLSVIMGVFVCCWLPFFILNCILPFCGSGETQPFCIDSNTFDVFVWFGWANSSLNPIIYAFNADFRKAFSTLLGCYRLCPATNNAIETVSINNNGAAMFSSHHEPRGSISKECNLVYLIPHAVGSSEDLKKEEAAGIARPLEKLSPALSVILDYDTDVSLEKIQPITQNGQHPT
Sequence of Cannabinoid receptor 1 (P21554 whole entry): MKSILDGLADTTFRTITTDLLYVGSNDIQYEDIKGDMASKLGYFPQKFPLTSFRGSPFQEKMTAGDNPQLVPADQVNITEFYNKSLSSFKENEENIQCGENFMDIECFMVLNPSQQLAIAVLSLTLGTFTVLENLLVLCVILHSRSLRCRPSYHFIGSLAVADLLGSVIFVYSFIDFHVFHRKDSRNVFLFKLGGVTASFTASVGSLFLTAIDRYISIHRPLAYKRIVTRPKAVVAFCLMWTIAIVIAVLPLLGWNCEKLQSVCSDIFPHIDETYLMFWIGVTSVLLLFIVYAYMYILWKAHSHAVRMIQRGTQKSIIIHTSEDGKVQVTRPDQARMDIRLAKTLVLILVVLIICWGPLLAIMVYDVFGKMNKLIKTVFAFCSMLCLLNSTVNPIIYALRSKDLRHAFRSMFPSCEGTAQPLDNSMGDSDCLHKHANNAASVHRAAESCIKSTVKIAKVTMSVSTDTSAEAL
Sequence of 5-hydroxytryptamine receptor 2B (P41595 whole entry): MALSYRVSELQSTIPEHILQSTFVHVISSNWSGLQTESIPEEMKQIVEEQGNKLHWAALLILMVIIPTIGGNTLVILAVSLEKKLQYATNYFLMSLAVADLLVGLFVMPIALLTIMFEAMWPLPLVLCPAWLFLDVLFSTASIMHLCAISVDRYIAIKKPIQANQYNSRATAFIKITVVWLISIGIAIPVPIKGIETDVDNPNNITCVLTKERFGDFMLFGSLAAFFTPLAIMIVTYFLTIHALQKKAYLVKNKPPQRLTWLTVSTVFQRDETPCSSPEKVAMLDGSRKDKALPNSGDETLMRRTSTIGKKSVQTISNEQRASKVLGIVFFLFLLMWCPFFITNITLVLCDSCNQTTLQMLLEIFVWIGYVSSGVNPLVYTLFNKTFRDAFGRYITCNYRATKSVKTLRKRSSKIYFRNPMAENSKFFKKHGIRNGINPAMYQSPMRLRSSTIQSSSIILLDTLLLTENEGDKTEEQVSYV

A word on the AC50: it is the midpoint of the concentration-response curve, whichever way the signal moves. A low value points to activity at low concentration. Take `O=C1C(O)=C([C@H]2CC[C@H](c3ccc(Cl)cc3)CC2)C(=O)c2ccccc21` [ATOVAQUONE]: the concentration at half-maximal activity (AC50) (at D(1A) dopamine receptor; in assay [1]; in assay [2]; at Progesterone receptor; in assay [3]; in assay [4]) was over 30 µM throughout. The compound also displayed a concentration at half-maximal activity (AC50) in assay [5] of over 30 µM.
On to `COc1ccc(CCNCC(O)COc2cccc(C)c2)cc1OC` (stereo not drawn) [BEVANTOLOL], for which the half-maximal activity concentration (AC50) on D(1A) dopamine receptor is over 30 µM; in assay [1], over 10 µM; in assay [2], 1.2 µM; at Progesterone receptor, over 10 µM; in assay [3], over 10 µM; in assay [4] it was over 30 µM. For the same compound, in assay [5], the activity was half-maximal at 9.4 µM (AC50).
On to `Brc1c(NC2=NCCN2)ccc2nccnc12` [BRIMONIDINE], for which the AC50 is over 30 µM on D(1A) dopamine receptor; over 30 µM in assay [1]; over 30 µM at Cannabinoid receptor 1; 5 µM in assay [2]; over 30 µM on Progesterone receptor; over 30 µM in assay [3]. The compound also had an AC50 in assay [4] of over 30 µM.
With `CC(CC1c2ccccc2CCc2ccccc21)CN(C)C` (stereo not drawn) [BUTRIPTYLINE], the half-maximal activity concentration (AC50) at D(1A) dopamine receptor was over 30 µM; at Cannabinoid receptor 1, over 30 µM; in assay [3], over 30 µM; in assay [4], over 30 µM; in assay [5], 6.9 µM.
`CC(C)(C)NCC(O)COc1cccc2c1CCC(=O)N2` (stereo not drawn) [CARTEOLOL]: the half-maximal activity concentration (AC50) at D(1A) dopamine receptor was over 10 µM; in assay [1], over 10 µM; on Cannabinoid receptor 1 it was over 30 µM; in assay [2], over 10 µM; at Progesterone receptor it was over 10 µM; in assay [3], over 10 µM. The AC50 in assay [4] is over 30 µM; in assay [5], over 10 µM.
Regarding `Clc1ccccc1C(c1ccccc1)(c1ccccc1)n1ccnc1` [CLOTRIMAZOLE], the AC50 is over 10 µM in assay [1]; over 30 µM on Cannabinoid receptor 1; over 10 µM in assay [2]; over 10 µM in assay [3]; over 30 µM in assay [4].
With `COc1ccc2c3c1O[C@H]1[C@@H](O)CC[C@H]4[C@@H](C2)N(C)CC[C@@]341` [DIHYDROCODEINE], the AC50 (on D(1A) dopamine receptor; on Cannabinoid receptor 1; in assay [2]; in assay [3]; in assay [4]; in assay [5]) was over 30 µM in each case.
Regarding `NC(=O)OCC(COC(N)=O)c1ccccc1` [FELBAMATE], the concentration at half-maximal activity (AC50) on D(1A) dopamine receptor was over 10 µM; in assay [1] it was over 10 µM; in assay [2], over 10 µM; on Progesterone receptor, over 10 µM; in assay [3] it was over 10 µM; in assay [4] it was over 30 µM. This compound displayed an AC50 in assay [5] of over 10 µM.
As to `Cc1c(OCC(F)(F)F)ccnc1C[S+]([O-])c1nc2ccccc2[nH]1` (stereo not drawn) [LANSOPRAZOLE], the AC50 on D(1A) dopamine receptor was over 10 µM; in assay [1], over 10 µM; at Cannabinoid receptor 1 it was over 30 µM; in assay [2] it was over 10 µM; in assay [3] it was over 10 µM; in assay [4] it was 2.3 µM. Also, the AC50 in assay [5] was over 10 µM.
For `Cc1cc(C(C)(C)C)c(O)c(C)c1CC1=NCCN1` [OXYMETAZOLINE], the concentration at half-maximal activity (AC50) is over 30 µM on D(1A) dopamine receptor; 23 µM in assay [1]; over 30 µM at Cannabinoid receptor 1; 0.0094 µM in assay [2]; over 30 µM on Progesterone receptor; 0.266 µM in assay [3]. Further, the concentration at half-maximal activity (AC50) in assay [4] was over 30 µM.
On to `C[C@H]1COc2c(C3(N)CC3)c(F)cc3c(=O)c(C(=O)O)cn1c23` [PAZUFLOXACIN], for which the AC50 is over 10 µM at D(1A) dopamine receptor; over 10 µM in assay [1]; over 10 µM in assay [2]; over 30 µM at Progesterone receptor; over 10 µM in assay [3]; over 30 µM in assay [4]. In assay [5], this compound came in with a half-maximal activity concentration (AC50) of over 10 µM.
Regarding `CC/C(=C(\c1ccccc1)c1ccc(OCCN(C)C)cc1)c1ccccc1` [TAMOXIFEN], the concentration at half-maximal activity (AC50) in assay [1] was over 10 µM; in assay [2], over 10 µM; in assay [3] it was over 10 µM; in assay [4] it was over 30 µM; in assay [5], over 10 µM.
With `C#C[C@]1(O)CC[C@H]2[C@@H]3[C@H](C)CC4=C(CCC(=O)C4)[C@H]3CC[C@@]21C` [TIBOLONE], the AC50 (at D(1A) dopamine receptor; in assay [1]; at Cannabinoid receptor 1; in assay [2]; in assay [3]; in assay [4]) was over 30 µM throughout. The AC50 in assay [5] was over 30 µM.
With `COc1cccc(C2(O)CCCCC2CN(C)C)c1` (stereo not drawn) [TRAMADOL], the AC50 was over 10 µM on D(1A) dopamine receptor; over 30 µM on Cannabinoid receptor 1; over 10 µM in assay [2]; over 10 µM in assay [3]; over 30 µM in assay [4]; over 10 µM in assay [5].
With `Cc1nnc2n1-c1ccc(Cl)cc1C(c1ccccc1Cl)=NC2` [TRIAZOLAM], the AC50 on D(1A) dopamine receptor was over 10 µM; in assay [1], over 10 µM; at Cannabinoid receptor 1, over 30 µM; in assay [2] it was over 10 µM; in assay [3], over 10 µM; in assay [4], over 30 µM. This compound yielded a concentration at half-maximal activity (AC50) in assay [5] of over 10 µM.
For `CC1(C)CCC(CN2CCN(c3ccc(C(=O)NS(=O)(=O)c4ccc(NCC5CCOCC5)c([N+](=O)[O-])c4)c(Oc4cnc5[nH]ccc5c4)c3)CC2)=C(c2ccc(Cl)cc2)C1` [VENETOCLAX], the AC50 is over 30 µM on D(1A) dopamine receptor, over 30 µM at Progesterone receptor and 17 µM in assay [5].
For THIMEROSAL, the half-maximal activity concentration (AC50) at D(1A) dopamine receptor was over 100 µM; in assay [3], over 30 µM.
